From patent US11802111B2, “Cyclobutyl amide monoacylglycerol lipase modulators” (Janssen Pharmaceutica NV, priority 2020, dated 2023)

Biological target: human MGL from HeLa cells (Homo sapiens (Human), UniProt Q99685)
Assay: MGL in vitro activity assay ([glycerol-1,3-3H]-oleoyl glycerol hydrolysis, activated carbon filtration)
Assay type: biochemical
Conditions: 300 nM [Glycerol-1,3-3H]-oleoyl glycerol, one hour
How it was run: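 Activity measured as tritium in the flow-through after activated carbon filtration of a 1 h reaction containing 300 nM 3H-oleoyl glycerol, compound and HeLa-derived human MGL. Compounds screened at 10 μM; IC50 series start at an empirically chosen highest concentration.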

Chain of human MGL from HeLa cells (Q99685 whole entry): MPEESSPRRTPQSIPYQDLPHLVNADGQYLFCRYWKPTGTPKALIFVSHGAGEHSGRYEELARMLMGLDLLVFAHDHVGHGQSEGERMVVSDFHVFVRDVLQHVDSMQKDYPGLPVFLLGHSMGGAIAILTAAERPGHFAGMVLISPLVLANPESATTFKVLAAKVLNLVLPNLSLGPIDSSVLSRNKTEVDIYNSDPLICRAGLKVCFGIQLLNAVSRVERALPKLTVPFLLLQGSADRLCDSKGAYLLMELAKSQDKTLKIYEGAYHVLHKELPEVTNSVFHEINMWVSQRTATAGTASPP

Row | SMILES | IC50
1 | C[C@]1(O)C[C@@H](C(=O)N2CC3(CC[C@@H](c4cccc(C5CC5)c4F)C3)C2)C1 (stereo in doubt) [Example 25, ((*R)-6-(3-Cyclopropyl-2-fluorophenyl)-2-azaspiro[3.4]octan-2-yl)((1s,3*S)-3-hydroxy-3-methylcyclobutyl)methanone] | 4 nM
2 | C[C@]1(O)C[C@@H](C(=O)N2CC3(CC[C@H](c4cccc(C5CC5)c4F)C3)C2)C1 (stereo in doubt) [Example 26, ((*S)-6-(3-Cyclopropyl-2-fluorophenyl)-2-azaspiro[3.4]octan-2-yl)((1s,3*R)-3-hydroxy-3-methylcyclobutyl)methanone] | 28 nM
3 | C[C@]1(O)C[C@@H](C(=O)N2CC3(CC[C@@H](c4cccc(OC(F)(F)F)c4)C3)C2)C1 (stereo in doubt) [Example 41, ((1s,3*S)-3-Hydroxy-3-methylcyclobutyl)((*R)-6-(3-(trifluoromethoxy)phenyl)-2-azaspiro[3.4]octan-2-yl)methanone] | 23 nM
4 | C[C@]1(O)C[C@@H](C(=O)N2CC3(CC[C@H](c4cccc(OC(F)(F)F)c4)C3)C2)C1 (stereo in doubt) [Example 42, ((1s,3*R)-3-Hydroxy-3-methylcyclobutyl)((*S)-6-(3-(trifluoromethoxy)phenyl)-2-azaspiro[3.4]octan-2-yl)methanone] | 22 nM
5 | CC(C)(C)c1cccc([C@@H]2CCC3(C2)CN(C(=O)[C@H]2C[C@@](C)(O)C2)C3)c1 (stereo in doubt) [Example 44, ((*R)-6-(3-(tert-Butyl)phenyl)-2-azaspiro[3.4]octan-2-yl)((1s,3*S)-3-hydroxy-3-methylcyclobutyl)methanone] | 9.8 nM
6 | CC(C)(C)c1cccc([C@H]2CCC3(C2)CN(C(=O)[C@H]2C[C@@](C)(O)C2)C3)c1 (stereo in doubt) [Example 45, ((*S)-6-(3-(tert-Butyl)phenyl)-2-azaspiro[3.4]octan-2-yl)((1s,3*R)-3-hydroxy-3-methylcyclobutyl)methanone] | 11 nM
7 | CC(C)c1cccc([C@@H]2CCC3(C2)CN(C(=O)[C@H]2C[C@@](C)(O)C2)C3)c1 (stereo in doubt) [Example 47, ((1s,3*S)-3-Hydroxy-3-methylcyclobutyl)((*R)-6-(3-isopropylphenyl)-2-azaspiro[3.4]octan-2-yl)methanone] | 21 nM
8 | CC(C)c1cccc([C@H]2CCC3(C2)CN(C(=O)[C@H]2C[C@@](C)(O)C2)C3)c1 (stereo in doubt) [Example 48, ((1s,3*R)-3-Hydroxy-3-methylcyclobutyl)((*S)-6-(3-isopropylphenyl)-2-azaspiro[3.4]octan-2-yl)methanone] | 17 nM
9 | C[C@]1(O)C[C@@H](C(=O)N2CC3(CC[C@@H](c4ccc(OC(F)(F)F)cc4)C3)C2)C1 (stereo in doubt) [Example 53, ((1s,3*S)-3-Hydroxy-3-methylcyclobutyl)((*R)-6-(4-(trifluoromethoxy)phenyl)-2-azaspiro[3.4]octan-2-yl)methanone] | 10 nM
10 | C[C@]1(O)C[C@@H](C(=O)N2CC3(CC[C@H](c4ccc(OC(F)(F)F)cc4)C3)C2)C1 (stereo in doubt) [Example 54, ((1s,3*R)-3-Hydroxy-3-methylcyclobutyl)((*S)-6-(4-(trifluoromethoxy)phenyl)-2-azaspiro[3.4]octan-2-yl)methanone] | 10 nM
11 | C[C@]1(O)C[C@@H](C(=O)N2CC3(CC[C@@H](c4ccc(C(F)(F)F)cc4)C3)C2)C1 (stereo in doubt) [Example 56, ((1s,3*S)-3-Hydroxy-3-methylcyclobutyl)((*R)-6-(4-(trifluoromethyl)phenyl)-2-azaspiro[3.4]octan-2-yl)methanone] | 22 nM
12 | C[C@]1(O)C[C@@H](C(=O)N2CC3(CC[C@H](c4ccc(C(F)(F)F)cc4)C3)C2)C1 (stereo in doubt) [Example 57, ((1s,3*R)-3-Hydroxy-3-methylcyclobutyl)((*S)-6-(4-(trifluoromethyl)phenyl)-2-azaspiro[3.4]octan-2-yl)methanone] | 24 nM
13 | C[C@]1(O)C[C@@H](C(=O)N2CC3(CC[C@@H](c4cccc(C5CC5)c4)C3)C2)C1 (stereo in doubt) [Example 59, ((*R)-6-(3-Cyclopropylphenyl)-2-azaspiro[3.4]octan-2-yl)((1s,3*S)-3-hydroxy-3-methylcyclobutyl)methanone] | 37 nM
14 | C[C@]1(O)C[C@@H](C(=O)N2CC3(CC[C@H](c4cccc(C5CC5)c4)C3)C2)C1 (stereo in doubt) [Example 60, ((*S)-6-(3-Cyclopropylphenyl)-2-azaspiro[3.4]octan-2-yl)((1s,3*R)-3-hydroxy-3-methylcyclobutyl)methanone] | 25 nM
15 | C[C@]1(O)C[C@@H](C(=O)N2CC3(CC[C@@H](c4cccc(C(F)(F)F)c4)C3)C2)C1 (stereo in doubt) [Example 62, ((1s,3*S)-3-Hydroxy-3-methylcyclobutyl)((*R)-6-(3-(trifluoromethyl)phenyl)-2-azaspiro[3.4]octan-2-yl)methanone] | 34 nM
16 | C[C@]1(O)C[C@@H](C(=O)N2CC3(CC[C@H](c4cccc(C(F)(F)F)c4)C3)C2)C1 (stereo in doubt) [Example 63, ((1s,3*R)-3-Hydroxy-3-methylcyclobutyl)((*S)-6-(3-(trifluoromethyl)phenyl)-2-azaspiro[3.4]octan-2-yl)methanone] | 22 nM
17 | Cc1cc([C@@H]2CCC3(C2)CN(C(=O)[C@H]2C[C@@](C)(O)C2)C3)ccc1OC(F)F (stereo in doubt) [Example 73, ((*R)-6-(4-(Difluoromethoxy)-3-methylphenyl)-2-azaspiro[3.4]octan-2-yl)((1s,3*S)-3-hydroxy-3-methylcyclobutyl)methanone] | 8.1 nM
18 | Cc1cc([C@H]2CCC3(C2)CN(C(=O)[C@H]2C[C@@](C)(O)C2)C3)ccc1OC(F)F (stereo in doubt) [Example 74, ((*S)-6-(4-(Difluoromethoxy)-3-methylphenyl)-2-azaspiro[3.4]octan-2-yl)((1s,3*R)-3-hydroxy-3-methylcyclobutyl)methanone] | 6.8 nM
19 | C[C@]1(O)C[C@@H](C(=O)N2CC3(CC[C@H](Cc4cccc(C(F)(F)F)c4)C3)C2)C1 (stereo in doubt) [Example 177, ((1s,3*S)-3-Hydroxy-3-methylcyclobutyl)((*R)-6-(3-(trifluoromethyl)benzyl)-2-azaspiro[3.4]octan-2-yl)methanone] | 14 nM
20 | C[C@]1(O)C[C@@H](C(=O)N2CC3(CC[C@@H](Cc4cccc(C(F)(F)F)c4)C3)C2)C1 (stereo in doubt) [Example 178, ((1s,3*R)-3-Hydroxy-3-methylcyclobutyl)((*S)-6-(3-(trifluoromethyl)benzyl)-2-azaspiro[3.4]octan-2-yl)methanone] | 11 nM
21 | C[C@@H](c1ccccc1)C1CC2(C1)CN(C(=O)[C@H]1C[C@@](C)(O)C1)C2 (stereo in doubt) [Example 310, ((1s,3*S)-3-Hydroxy-3-methylcyclobutyl)(6-((*R)-1-phenylethyl)-2-azaspiro[3.3]heptan-2-yl)methanone] | 33 nM
22 | C[C@H](c1ccccc1)C1CC2(C1)CN(C(=O)[C@H]1C[C@@](C)(O)C1)C2 (stereo in doubt) [Example 311, ((1s,3*R)-3-Hydroxy-3-methylcyclobutyl)(6-((*S)-1-phenylethyl)-2-azaspiro[3.3]heptan-2-yl)methanone] | 77 nM
